Measurements taken from US20200093751A1, “CHEMOPROTECTIVE/CHEMOACTIVE NANODROPLETS AND METHODS OF USE THEREOF” (priority 2016, published 2020).

Key:
[1] = test system: NCI-H460 human lung cancer model; assay: Tumor growth inhibition in NCI-H460 human lung cancer model in nude mice; assay type: in vivo; details: TAXOTERE 15 mg/kg tail vein once per week, two injections; treatment ended on 13th day
Method: NCI-H460 cell suspensions were injected subcutaneously on the backs of mice to establish a tumor model. When tumor volume reached approximately 50 mm^3, groups of tumor-bearing mice (n=5) were injected through the tail vein once per week for a total of two weeks with a dose of 15 mg/kg per animal for TAXOTERE® or 30 mg/kg per animal twice per week for three weeks for Tonp nanodroplets. On the 20th day, the tumor growth inhibition of d-T3 (Tonp) treatment was 70%.
NCI-H460 cell suspensions were injected subcutaneously on the backs of mice to establish the tumor model. […] The Tonp was injected one day before TAXOTERE® starting just before the second injection of TAXOTERE®.
NCI-H460 human lung cancer cells were injected subcutaneously on the backs of nude mice to establish a tumor model. When tumor volume reached approximately 50 mm^3, mice were divided into treatment groups, which typically consisted of five mice.
In one experiment, tumor-bearing mice were either left untreated, were treated with TAXOTERE®, or were treated with Tonp nanodroplets. Mice were injected through the trail vein once per week with 15 mg/kg of TAXOTERE® or twice per week for three weeks with a dose of 30 mg/kg of Tonp.
One group of tumor-bearing mice was injected with TAXOTERE® through the tail vein once per week at a dose of 15 mg/kg per animal. […]

[2] = Toxicity / chemoprotective effect (body weight) in NCI-H460 tumor-bearing nude mice; assay type: in vivo
Method: When tumor volume reached approximately 50 mm^3, groups of tumor-bearing mice (n=5) were injected through the tail vein twice per week for a total of three weeks with a dose of 30 mg/kg per animal.
When tumor volume reached approximately 50 mm^3, groups of tumor-bearing mice (n=5) were injected through the tail vein twice per week for a total of three weeks with a dose of 30 mg/kg per animal of Tonp or once per week with a dose of 15 mg/kg per animal of TAXOTERE®.
The Tonp was injected one day before TAXOTERE® starting just before the second injection of TAXOTERE®.
Toxicity of the nanodroplet formulations was further assessed with respect to groups of mice with tumors. NCI-H460 human lung cancer cells were injected subcutaneously on the backs of nude mice to establish a tumor model. When tumor volume reached approximately 50 mm^3, mice were divided into treatment groups, which typically consisted of five mice. Mice were injected through the tail vein twice per week for three weeks with 30 mg/kg of Tonp or once per week with a dose of 15 mg/kg of TAXOTERE®.
One group of tumor-bearing mice was injected with TAXOTERE® through the tail vein once per week at a dose of 15 mg/kg per animal. […] Tonp, when used, was injected one day before TAXOTERE® starting just before the second injection of TAXOTERE®.

CC(=O)O[C@@]12CO[C@@H]1C[C@H](O)[C@@]1(C)C(=O)[C@H](O)C3=C(C)[C@@H](OC(=O)[C@H](O)[C@@H](NC(=O)OC(C)(C)C)c4ccccc4)C[C@@](O)([C@@H](OC(=O)c4ccccc4)[C@H]21)C3(C)C [TAXOTERE®, docetaxel]
tumor growth inhibition [1]: 71% | body weight after about two weeks of treatment ([2]; TAXOTERE 15 mg/kg once per week): significantly decreased in body weight | body weight after two injections of TAXOTERE ([2]; TAXOTERE 15 mg/kg once per week without Tonp, treatment ended on 13th day): severe body weight drop
